Source: ChEMBL document CHEMBL3039007, “Structure-based identification of OATP1B1/3 inhibitors” (Mol Pharmacol, 2013)
Residues, ends and D or L forms follow the SMILES beside them.

Columns and labels:
[1] = molecular target: T1, Solute carrier organic anion transporter family member 1B3 (Homo sapiens, UniProt Q9NPD5); conditions: chinese hamster, cho, 10 µM
T1 sequence (Q9NPD5 whole entry): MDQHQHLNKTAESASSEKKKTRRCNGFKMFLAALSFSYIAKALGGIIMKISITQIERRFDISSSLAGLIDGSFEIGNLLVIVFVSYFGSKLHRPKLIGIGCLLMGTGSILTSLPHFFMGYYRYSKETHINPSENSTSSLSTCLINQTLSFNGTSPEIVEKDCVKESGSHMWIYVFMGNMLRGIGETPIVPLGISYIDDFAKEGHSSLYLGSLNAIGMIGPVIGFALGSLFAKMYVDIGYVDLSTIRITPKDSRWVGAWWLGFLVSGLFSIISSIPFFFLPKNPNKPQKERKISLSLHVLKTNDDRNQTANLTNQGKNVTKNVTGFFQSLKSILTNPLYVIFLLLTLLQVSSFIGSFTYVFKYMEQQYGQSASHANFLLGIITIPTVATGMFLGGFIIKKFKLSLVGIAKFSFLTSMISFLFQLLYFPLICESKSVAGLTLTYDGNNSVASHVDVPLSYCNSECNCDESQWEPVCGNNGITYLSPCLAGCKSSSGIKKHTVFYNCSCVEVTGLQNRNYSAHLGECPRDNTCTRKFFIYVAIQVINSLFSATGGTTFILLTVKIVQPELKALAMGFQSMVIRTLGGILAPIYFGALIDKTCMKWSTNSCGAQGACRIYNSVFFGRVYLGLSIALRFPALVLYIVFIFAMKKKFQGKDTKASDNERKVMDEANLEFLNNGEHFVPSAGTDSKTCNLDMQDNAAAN

[2] = molecular target: T2, Solute carrier organic anion transporter family member 1B1 (Homo sapiens, UniProt Q9Y6L6); conditions: chinese hamster, cho, 10 µM
T2 sequence (Q9Y6L6 whole entry): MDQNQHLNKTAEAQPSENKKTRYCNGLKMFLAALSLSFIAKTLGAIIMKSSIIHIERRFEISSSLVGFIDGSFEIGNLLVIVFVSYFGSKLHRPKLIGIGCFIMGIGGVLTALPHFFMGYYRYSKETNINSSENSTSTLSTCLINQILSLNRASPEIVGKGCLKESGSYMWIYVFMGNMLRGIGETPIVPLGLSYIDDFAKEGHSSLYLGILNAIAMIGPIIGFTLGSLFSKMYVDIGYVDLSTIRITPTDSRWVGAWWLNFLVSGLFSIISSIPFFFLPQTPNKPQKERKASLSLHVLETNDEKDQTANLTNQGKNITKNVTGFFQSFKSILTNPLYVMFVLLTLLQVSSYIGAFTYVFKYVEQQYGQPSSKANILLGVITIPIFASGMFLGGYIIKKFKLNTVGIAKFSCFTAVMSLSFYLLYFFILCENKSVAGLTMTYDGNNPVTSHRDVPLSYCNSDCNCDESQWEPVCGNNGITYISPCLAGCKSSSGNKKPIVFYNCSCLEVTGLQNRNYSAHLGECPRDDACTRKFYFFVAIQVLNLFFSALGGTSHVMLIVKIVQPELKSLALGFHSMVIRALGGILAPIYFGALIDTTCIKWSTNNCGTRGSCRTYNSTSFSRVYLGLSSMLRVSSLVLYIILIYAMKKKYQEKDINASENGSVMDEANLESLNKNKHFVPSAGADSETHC

With C[C@H](CCC(=O)O)[C@H]1CC[C@H]2[C@@H]3CC[C@@H]4CC(=O)CC[C@]4(C)[C@H]3C=C[C@]12C the residual activity [1] was 203.2% and the residual activity [2] was 40.37%.

With COc1cc(O)c2c(=O)cc(-c3ccc(O)cc3)oc2c1 [GENKWANIN] the residual activity [1] was 107% and the residual activity [2] was 116.7%.

For COc1ccc(C2COc3cc(O)ccc3C2)c(OC)c1O (racemic) [MUCRONULATOL(+/-)], the residual activity [1] was 87.73% and the residual activity [2] was 87.17%.

With CC[n+]1c(-c2ccccc2)c2cc(N)ccc2c2ccc(N)cc21.[Br-] [HOMIDIUM BROMIDE] the residual activity [1] was 100.7% and the residual activity [2] was 98.94%.

CC(=O)NC(Cc1ccccc1)C(=O)O (stereo not drawn) [AFALANINE] gave a residual activity [1] of 112.5% and a residual activity [2] of 114.2%.

For CC(C)(C)N.CCC[C@H](N[C@@H](C)C(=O)N1[C@H](C(=O)O)C[C@@H]2CCCC[C@@H]21)C(=O)OCC [PERINDOPRIL ERBUMINE], the residual activity [1] was 81.39% and the residual activity [2] was 107.5%.

Work on COc1cccc2c1cc([N+](=O)[O-])c1c(C(=O)O)cc3c(c12)OCO3 [ARISTOLOCHIC ACID] yielded a residual activity [1] of 107.6% and a residual activity [2] of 76.91%.

CC(CN(C)C)CN1c2ccccc2CCc2ccccc21.O=C(O)/C=C\C(=O)O (stereo not drawn) [TRIMIPRAMINE MALEATE] showed a residual activity [1] of 103.3% and a residual activity [2] of 93.52%.

For COc1cc(/C=C/CO)ccc1O [CONIFERYL ALCOHOL], the residual activity [1] was 66.12% and the residual activity [2] was 49.7%.

For ClC(Cl)=C(c1ccc(Cl)cc1)c1ccc(Cl)cc1 [DICHLORODIPHENYLDICHLOROETHYLENE], the residual activity [1] was 103.2% and the residual activity [2] was 94.96%.

In the case of NC1(C(=O)O)CCC1 [1-AMINOCYCLOBUTANE CARBOXYLIC ACID], the residual activity [1] is reported as 95.93% and the residual activity [2] is reported as 131.1%.

COc1cccc(O)c1O [3-METHOXYCATECHOL] was tested, and the residual activity [1] was 107.5% and the residual activity [2] was 98.75%.

In the case of COc1cccc2c1CCC1CC(=O)CC[C@]21C (stereo partly drawn) [14-METHOXY-4,4-BISNOR-8,11,13-PODOCARPATRIEN-3-ONE], the residual activity [1] is reported as 100.9% and the residual activity [2] is reported as 118%.

CCNC(=O)CC[C@H](N)C(=O)O [THEANINE] showed a residual activity [1] of 82.21% and a residual activity [2] of 120.6%.

For C[C@H]1O[C@@H](O[C@H]2[C@@H](O)C[C@H](O[C@H]3[C@@H](O)C[C@H](O[C@H]4CC[C@@]5(C)[C@H](CC[C@@H]6[C@@H]5CC[C@]5(C)[C@@H](C7=CC(=O)OC7)CC[C@]65O)C4)O[C@@H]3C)O[C@@H]2C)C[C@H](O)[C@@H]1O [DIGITOXIN], the residual activity [1] was 66.85% and the residual activity [2] was 56.48%.

Molecule CC(=O)Oc1ccc(-c2cc(=O)c3c(OC(C)=O)cc(OC(C)=O)cc3o2)cc1 [APIGENIN TRIACETATE] has a residual activity [1] of 94.69% and a residual activity [2] of 92.99%.

Molecule Cc1cccc(C)c1N=C1NCCCS1 [XYLAZINE] has a residual activity [1] of 83.59% and a residual activity [2] of 64.31%.

Molecule CCOP(=S)(OCC)Oc1ccc2c(C)c(Cl)c(=O)oc2c1 [COUMAPHOS] has a residual activity [1] of 124.8% and a residual activity [2] of 99.64%.

CC1(C)O[C@@H]2C[C@H]3[C@@H]4CCC5=CC(=O)CC[C@]5(C)[C@@]4(F)[C@@H](O)C[C@]3(C)[C@]2(C(=O)CCl)O1 [HALCINONIDE] showed a residual activity [1] of 103.5% and a residual activity [2] of 88.26%.

Work on CCn1cc(C(=O)O)c(=O)c2cc(F)c(N3CCN(C)CC3)cc21.CS(=O)(=O)O [PEFLOXACIN MESYLATE] yielded a residual activity [1] of 95.74% and a residual activity [2] of 123.1%.

CC(=O)Oc1ccc(/C=C/c2cc(OC(C)=O)cc(OC(C)=O)c2)cc1 [TRIACETYLRESVERATROL] gave a residual activity [1] of 143.6% and a residual activity [2] of 160.6%.

In the case of COC(=O)NC(=S)Nc1ccccc1NC(=S)NC(=O)OC [THIOPHANATE METHYL], the residual activity [1] is reported as 92.95% and the residual activity [2] is reported as 119%.

C=C[C@H]1CN2CC[C@H]1C[C@H]2[C@H](O)c1ccnc2ccccc12 [CINCHONIDINE] was tested, and the residual activity [1] was 111.1% and the residual activity [2] was 86.58%.

CO/N=C1\CN(c2nc3c(cc2F)c(=O)c(C(=O)O)cn3C2CC2)CC1CN.CS(=O)(=O)O (stereo not drawn) [GEMIFLOXACIN MESYLATE] showed a residual activity [1] of 108.8% and a residual activity [2] of 102.7%.

Molecule CC(C)C[C@H](NC(=O)CN)C(=O)N[C@@H](Cc1ccccc1)C(=O)O (H-Gly-Leu-Phe-OH) has a residual activity [1] of 114.9% and a residual activity [2] of 118.4%.

Work on CC1(C)C[C@@H]2C(=O)CC[C@H]3O[C@]3(C)CC[C@H]21 [KOBUSONE] yielded a residual activity [1] of 84.64% and a residual activity [2] of 64.48%.

For CN(C)CCN(Cc1ccccc1)c1ccccn1.O=C(O)CC(O)(CC(=O)O)C(=O)O [TRIPELENNAMINE CITRATE], the residual activity [1] was 93.75% and the residual activity [2] was 81.25%.

With CC1CC(OC(=O)C(O)c2ccccc2)CC(C)(C)N1C.Cl (stereo not drawn) [EUCATROPINE HYDROCHLORIDE] the residual activity [1] was 107.8% and the residual activity [2] was 84.86%.

For CCCCC(=O)Oc1ccccc1C(=O)O [VALERYL SALYCILATE], the residual activity [1] was 92.91% and the residual activity [2] was 78.97%.

CC[C@H]1[C@@H]2C[C@H]3[C@@H]4N(C)c5ccccc5[C@]45C[C@@H]([C@@H]2[C@H]5O)N3[C@@H]1O [AJMALINE] gave a residual activity [1] of 91.52% and a residual activity [2] of 34.58%.

O=C1C[C@@H](c2ccc(O)cc2)Oc2cc(O)cc(O)c21 [NARINGENIN] showed a residual activity [1] of 95.55% and a residual activity [2] of 96.26%.

In the case of C[C@]12CC[C@@H](O)C[C@H]1CC[C@@H]1[C@@H]2C(=O)C[C@@]2(C)[C@H]1CC[C@]2(O)C(=O)CO [TETRAHYDROCORTISONE], the residual activity [1] is reported as 99.93% and the residual activity [2] is reported as 101.6%.

In the case of CO[C@H]1C[C@H](O[C@H]2[C@H](C)[C@@H](O[C@@H]3O[C@H](C)C[C@H](N(C)C)[C@H]3O)[C@@H](C)C[C@@]3(CO3)C(=O)[C@H](C)[C@@H](O)[C@@H](C)[C@@H](C)OC(=O)[C@@H]2C)O[C@@H](C)[C@@H]1O.O=P(O)(O)O [OLEANDOMYCIN PHOSPHATE], the residual activity [1] is reported as 105.8% and the residual activity [2] is reported as 102.8%.

CC(=O)O[C@@H]1C[C@H]2C(C)(C)C(=O)C=C[C@]2(C)[C@H]2CC[C@@]3(C)[C@H](c4ccoc4)OC(=O)[C@H]4O[C@]43[C@@]21C [GEDUNIN] gave a residual activity [1] of 105.4% and a residual activity [2] of 65.45%.

CCNc1nc(Cl)nc(NCC)n1 [SIMAZINE] gave a residual activity [1] of 92.02% and a residual activity [2] of 89.71%.

Molecule COC(=O)[C@@H]1OC(=O)[C@H]2O[C@]23[C@@]2(C)[C@H](CC[C@@]13C)[C@@]1(C)CCC(=O)C(C)(C)[C@@H]1C[C@H]2OC(C)=O has a residual activity [1] of 99.12% and a residual activity [2] of 49.67%.

For CC(=O)/C=C\[C@@H]1[C@@]2(C)CCCC(C)(C)C2CC[C@@]1(C)O (stereo partly drawn) [8-HYDROXY-15,16-BISNOR-11-LABDEN-13-ONE], the residual activity [1] was 84.33% and the residual activity [2] was 71.14%.

With CN(C)CCOC(=O)C(c1ccccc1)C1(O)CCCC1.Cl (stereo not drawn) [CYCLOPENTOLATE HYDROCHLORIDE] the residual activity [1] was 100.2% and the residual activity [2] was 87.23%.

In the case of COc1cc(O)cc(OC)c1OC [ANTIAROL], the residual activity [1] is reported as 113% and the residual activity [2] is reported as 95.16%.

Molecule C[C@@H]1CC[C@@]2(OC1)O[C@H]1C[C@H]3[C@@H]4CC[C@@]5(C)C[C@@H](O)CC[C@]5(C)[C@H]4CC(=O)[C@]3(C)[C@H]1[C@@H]2C [HECOGENIN] has a residual activity [1] of 105.1% and a residual activity [2] of 41.82%.

COc1ccc2c(=O)c(OC)c(-c3ccccc3)oc2c1 [3,7-DIMETHOXYFLAVONE] showed a residual activity [1] of 144.6% and a residual activity [2] of 59.28%.

For N=C(N)NOCC[C@H](N)C(=O)O [CANAVANINE], the residual activity [1] was 91.69% and the residual activity [2] was 101.6%.

Work on CC(=O)Oc1ccc2c(c1C(C)C)CC[C@H]1C(C)(C)CCC[C@]21C yielded a residual activity [1] of 105.1% and a residual activity [2] of 70.34%.

For COc1cc(OC)c2c(=O)cc(-c3ccccc3)oc2c1 [CHRYSIN DIMETHYL ETHER], the residual activity [1] was 103.1% and the residual activity [2] was 112.1%.
